Source: patent US9745320B2, “Five-and-six-membered heterocyclic compound, and preparation method, pharmaceutical composition and use thereof” (SHANGHAI CHEMEXPLORER CO., LTD., priority 2013, dated 2017)

Key:
Assay type in all cases: biochemical
JAK2 = JAK2 (Homo sapiens, UniProt O60674); experiment: JAK 2 enzymatic inhibitory activity IC50 assay (Caliper conversion rate); details: Km ATP, 28° C., 1 hour
Experimental: (§1) Biological effect: intracytoplasmic JAK 1,2,3 enzymatic inhibitory activity IC50 assay
(§2) JAK1 buffer solution: 25 mM HEPES, pH 7.5, 0.01% Brij-35, 0.01 M Triton. JAK2,3 buffer solution: 50 mM HEPES, pH 7.5, 0.0015% Brij-35.
(§3) 2. Compound was formulated in 100% DMSO in a concentration gradient, deposited to a 384-well plate with a final concentration of 2% of DMSO.
(§4) 3. JAK2,3 enzymes were diluted to having an optimum concentration with the following buffer: 50 mM HEPES, pH 7.5, 0.0015% Brij-35, 2 mM DTT. JAK1 enzyme was diluted to having an optimum concentration with the following buffer: 25 mM HEPES, pH 7.5, 0.01% Brij-35, 2 mM DTT, 0.01M Triton. Then they were transferred to a 384-well plate and incubated with the compound for a certain time.
(§5) 4. JAK2,3 substrate was diluted to having an optimum concentration with the following buffer: 50 mM HEPES, pH 7.5, 0.0015% Brij-35, 10 mM MgCl2, Km adenosine triphosphate. JAK1 substrate was diluted to having an optimum concentration with the following buffer: 25 mM HEPES, pH 7.5, 0.01% Brij-35, 10 mM MgCl2, 0.01 M Triton. Km adenosine triphosphate was added into 384-well plates to initiate reactions, and the reaction were carried out at 28° C. for 1 hour.
(§6) 5. Read the conversion rate by Caliper Reader, and the inhibition rate are calculated according to the average of two tests.

JAK1 = JAK1 (Homo sapiens, UniProt P23458); experiment: JAK 1 enzymatic inhibitory activity IC50 assay (Caliper conversion rate); details: Km ATP, 28° C., 1 hour
Experimental: as §1, §2, §3, §4, §5, §6

JAK3 = target: T1, JAK3 (Homo sapiens, UniProt P52333); experiment: JAK 3 enzymatic inhibitory activity IC50 assay (Caliper conversion rate); details: Km ATP, 28° C., 1 hour; read-out: JAK 3 enzymatic inhibitory activity IC50
T1 sequence (P52333 1-1124): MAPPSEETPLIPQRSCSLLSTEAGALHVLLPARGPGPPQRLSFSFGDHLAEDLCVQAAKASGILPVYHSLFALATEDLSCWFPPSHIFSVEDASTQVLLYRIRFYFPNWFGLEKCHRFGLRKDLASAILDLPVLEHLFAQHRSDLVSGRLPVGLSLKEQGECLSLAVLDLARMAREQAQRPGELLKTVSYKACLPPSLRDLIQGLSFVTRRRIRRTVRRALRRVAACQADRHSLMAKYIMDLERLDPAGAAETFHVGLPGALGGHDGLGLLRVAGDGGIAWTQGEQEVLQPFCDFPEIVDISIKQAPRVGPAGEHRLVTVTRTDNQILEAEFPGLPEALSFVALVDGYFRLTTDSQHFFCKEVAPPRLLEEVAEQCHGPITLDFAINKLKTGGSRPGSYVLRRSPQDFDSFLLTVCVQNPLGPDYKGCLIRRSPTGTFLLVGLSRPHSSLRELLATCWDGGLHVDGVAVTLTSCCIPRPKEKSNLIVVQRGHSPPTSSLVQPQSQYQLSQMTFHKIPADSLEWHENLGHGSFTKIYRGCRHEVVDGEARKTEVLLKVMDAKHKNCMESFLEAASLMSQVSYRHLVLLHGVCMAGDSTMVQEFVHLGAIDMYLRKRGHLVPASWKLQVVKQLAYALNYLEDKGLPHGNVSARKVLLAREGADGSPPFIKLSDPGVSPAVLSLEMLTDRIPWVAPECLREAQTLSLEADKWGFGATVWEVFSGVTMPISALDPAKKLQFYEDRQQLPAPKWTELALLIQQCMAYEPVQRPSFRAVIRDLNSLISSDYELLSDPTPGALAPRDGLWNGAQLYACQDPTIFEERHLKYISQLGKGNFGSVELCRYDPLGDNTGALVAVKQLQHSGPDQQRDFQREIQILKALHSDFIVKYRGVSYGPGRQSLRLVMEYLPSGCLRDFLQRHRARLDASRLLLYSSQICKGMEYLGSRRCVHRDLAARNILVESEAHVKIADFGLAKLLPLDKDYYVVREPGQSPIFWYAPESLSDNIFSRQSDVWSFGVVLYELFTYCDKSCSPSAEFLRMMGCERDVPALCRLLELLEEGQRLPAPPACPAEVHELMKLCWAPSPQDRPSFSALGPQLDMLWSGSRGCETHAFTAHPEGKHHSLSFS
Experimental: as §1, §2, §3
as §4, with “time. […]” for “time.”
as §6

JAK2, sequence (O60674 whole entry, species assumed): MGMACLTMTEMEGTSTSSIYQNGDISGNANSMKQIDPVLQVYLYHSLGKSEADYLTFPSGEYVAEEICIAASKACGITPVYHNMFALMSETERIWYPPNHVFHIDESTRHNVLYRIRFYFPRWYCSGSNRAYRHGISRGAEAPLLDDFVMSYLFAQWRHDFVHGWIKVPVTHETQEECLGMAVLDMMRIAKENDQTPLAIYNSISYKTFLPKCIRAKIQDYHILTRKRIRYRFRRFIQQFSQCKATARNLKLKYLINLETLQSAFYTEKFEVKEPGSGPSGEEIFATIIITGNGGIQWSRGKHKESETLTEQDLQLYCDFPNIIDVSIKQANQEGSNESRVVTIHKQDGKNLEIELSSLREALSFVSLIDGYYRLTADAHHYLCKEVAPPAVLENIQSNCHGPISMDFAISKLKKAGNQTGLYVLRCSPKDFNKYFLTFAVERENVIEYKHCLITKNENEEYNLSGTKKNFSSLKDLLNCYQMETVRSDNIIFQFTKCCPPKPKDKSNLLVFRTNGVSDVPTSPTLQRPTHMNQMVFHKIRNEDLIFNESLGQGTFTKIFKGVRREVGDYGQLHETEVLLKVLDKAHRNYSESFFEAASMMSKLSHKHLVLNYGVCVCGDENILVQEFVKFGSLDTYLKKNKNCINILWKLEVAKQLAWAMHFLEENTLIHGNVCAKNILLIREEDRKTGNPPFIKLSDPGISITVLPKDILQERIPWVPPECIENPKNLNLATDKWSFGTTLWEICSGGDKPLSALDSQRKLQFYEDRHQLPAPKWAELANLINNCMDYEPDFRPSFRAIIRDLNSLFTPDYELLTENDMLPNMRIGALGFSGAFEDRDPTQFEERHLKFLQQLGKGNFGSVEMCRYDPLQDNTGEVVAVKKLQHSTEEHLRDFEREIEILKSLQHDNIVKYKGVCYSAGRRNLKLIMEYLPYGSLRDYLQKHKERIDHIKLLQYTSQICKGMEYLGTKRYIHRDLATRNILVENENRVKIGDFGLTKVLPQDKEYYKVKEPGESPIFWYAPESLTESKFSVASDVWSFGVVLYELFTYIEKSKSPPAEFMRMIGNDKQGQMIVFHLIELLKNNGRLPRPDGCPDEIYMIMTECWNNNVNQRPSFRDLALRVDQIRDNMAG
JAK1, sequence (P23458 whole entry, species assumed): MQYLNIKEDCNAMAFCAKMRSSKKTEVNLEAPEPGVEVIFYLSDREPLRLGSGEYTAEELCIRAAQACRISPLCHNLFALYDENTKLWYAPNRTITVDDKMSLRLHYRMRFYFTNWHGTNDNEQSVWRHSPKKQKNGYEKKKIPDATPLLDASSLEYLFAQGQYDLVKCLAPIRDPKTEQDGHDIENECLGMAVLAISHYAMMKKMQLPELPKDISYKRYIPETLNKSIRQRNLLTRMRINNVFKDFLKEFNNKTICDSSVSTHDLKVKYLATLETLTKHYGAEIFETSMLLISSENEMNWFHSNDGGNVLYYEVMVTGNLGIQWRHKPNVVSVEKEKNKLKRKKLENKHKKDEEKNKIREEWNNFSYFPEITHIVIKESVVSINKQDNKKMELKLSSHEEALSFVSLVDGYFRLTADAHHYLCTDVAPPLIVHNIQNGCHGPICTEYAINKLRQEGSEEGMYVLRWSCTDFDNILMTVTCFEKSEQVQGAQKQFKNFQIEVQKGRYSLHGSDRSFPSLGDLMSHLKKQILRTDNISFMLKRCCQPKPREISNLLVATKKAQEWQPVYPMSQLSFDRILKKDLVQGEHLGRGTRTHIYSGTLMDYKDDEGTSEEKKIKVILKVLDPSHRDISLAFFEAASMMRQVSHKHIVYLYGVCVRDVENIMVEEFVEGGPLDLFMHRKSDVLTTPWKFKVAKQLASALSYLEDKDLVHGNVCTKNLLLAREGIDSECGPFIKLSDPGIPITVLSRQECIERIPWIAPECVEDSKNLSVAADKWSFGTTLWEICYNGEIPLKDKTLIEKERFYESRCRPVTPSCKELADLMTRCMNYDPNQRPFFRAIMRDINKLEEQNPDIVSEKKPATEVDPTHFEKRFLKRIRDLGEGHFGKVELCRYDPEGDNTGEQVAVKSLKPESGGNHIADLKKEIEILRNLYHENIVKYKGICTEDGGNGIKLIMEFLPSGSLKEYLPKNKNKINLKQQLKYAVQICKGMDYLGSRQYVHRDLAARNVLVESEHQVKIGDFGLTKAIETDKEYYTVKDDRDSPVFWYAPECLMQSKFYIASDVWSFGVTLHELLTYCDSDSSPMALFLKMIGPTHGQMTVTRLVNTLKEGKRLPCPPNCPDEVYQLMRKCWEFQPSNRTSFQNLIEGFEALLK

Structure (SMILES) | IC50 (JAK2) [nM] | IC50 (JAK1) [nM] | IC50 (JAK3) [nM]
CCS(=O)(=O)N1CC(CC#N)(n2cc(-c3nc(Nc4ccc(S(C)(=O)=O)cc4)nc4sccc34)cn2)C1 [Compound T-18, 2-(1-(Ethylsulfonyl)-3-(4-(2-((4-(methylsulfonyl)phenyl)amino)thieno[2,3-d]pyrimidin-4-yl)-1H-pyrazol-1-yl)azetidin-3-yl)acetonitrile] | < 50 | 50 to 500 | 500 to 1000
CCS(=O)(=O)N1CC(CC#N)(n2cc(-c3nc(Nc4ccc(C#N)cc4)nc4ccsc34)cn2)C1 [Compound T-19, 4-((4-(1-(3-(Cyanomethyl)-1-(ethylsulfonyl)azetidin-3-yl)-1H-pyrazol-4-yl)thieno[3,2-d]pyrimidin-2-yl)amino)benzonitrile] | < 50 | 50 to 500 | 50 to 500
N#CCC1(n2cc(-c3nc(Nc4ccccc4)nc4ccsc34)cn2)COC1 [Compound T-20, 2-(3-(4-(2-(Phenylamino)thieno[3,2-d]pyrimidin-4-yl)-1H-pyrazol-1-yl)oxetan-3-yl)acetonitrile] | < 50 | 50 to 500 | 500 to 1000
CCS(=O)(=O)N1CC(CC#N)(n2cc(-c3nc(Nc4ccncc4)nc4ccsc34)cn2)C1 [Compound T-21, 2-(1-(Ethylsulfonyl)-3-(4-(2-(pyridin-4-ylamino)thieno[3,2-d]pyrimidin-4-yl)-1H-pyrazol-1-yl)azetidin-3-yl)acetonitrile] | < 50 | 50 to 500 | 50 to 500
CCS(=O)(=O)N1CC(CC#N)(n2cc(-c3nc(Nc4ccc(C#N)nc4)nc4ccsc34)cn2)C1 [Compound T-22, 5-((4-(1-(3-(Cyanomethyl)-1-(ethylsulfonyl)azetidin-3-yl)-1H-pyrazol-4-yl)thieno[3,2-d]pyrimidin-2-yl)amino)picolinonitrile] | < 50 | > 1000 | > 1000
CCS(=O)(=O)N1CC(CC#N)(n2cc(-c3nc(Nc4ccccc4)nc4cc(C)sc34)cn2)C1 [Compound T-23, 2-(1-(Ethylsulfonyl)-3-(4-(6-methyl-2-(phenylamino)thieno[3,2-d]pyrimidin-4-yl)-1H-pyrazol-1-yl)azetidin-3-yl)acetonitrile] | > 1000 | > 1000 | > 1000
CCS(=O)(=O)N1CC(CC#N)(n2cc(-c3nc(Nc4ccn(C)n4)nc4ccsc34)cn2)C1 [Compound T-25, 2-(1-(Ethylsulfonyl)-3-(4-(2-((1-methyl-1H-pyrazol-3-yl)amino)thieno[3,2-d]pyrimidin-4-yl)-1H-pyrazol-1-yl)azetidin-3-yl)acetonitrile] | < 50 | < 50 | 50 to 500
CCS(=O)(=O)N1CC(CC#N)(n2cc(-c3nc(Nc4cccnc4)nc4ccsc34)cn2)C1 [Compound T-26, 2-(1-(Ethylsulfonyl)-3-(4-(2-(pyridin-3-ylamino)thieno[3,2-d]pyrimidin-4-yl)-1-pyrazol-1-yl)azetidin-3-yl)acetonitrile] | < 50 | < 50 | 50 to 500
CCS(=O)(=O)N1CC(CC#N)(n2cc(-c3nc(NC4CC4)nc4ccsc34)cn2)C1 [Compound T-28, 2-(3-(4-(2-(Cyclopropylamino)thieno[3,2-d]pyrimidin-4-yl)-1H-pyrazol-1-yl)-1-(ethylsulfonyl)azetidin-3-yl)acetonitrile] | > 1000 | > 1000 | > 1000
CCS(=O)(=O)N1CC(CC#N)(n2cc(-c3nc(NC(=O)C4CC4)nc4ccsc34)cn2)C1 [Compound T-29, N-(4-(1-(3-(Cyanomethyl)-1-(ethylsulfonyl)azetidin-3-yl)-1H-pyrazol-4-yl)thieno[3,2-d]pyrimidin-2-yl)cyclopropanecarboxamide] | < 50 | 50 to 500 | > 1000
CCS(=O)(=O)N1CC(CC#N)(n2cc(-c3nc(Nc4ccccc4)nc4ccoc34)cn2)C1 [Compound T-30, 2-(1-(Ethylsulfonyl)-3-(4-(2-(phenylamino)furo[3,2-d]pyrimidin-4-yl)-1H-pyrazol-1-yl)azetidin-3-yl)acetonitrile] | < 50 | 50 to 500 | 50 to 500
CCS(=O)(=O)N1CC(CC#N)(n2cc(-c3nc(Nc4cn[nH]c4)nc4ccsc34)cn2)C1 [Compound T-31, 2-(3-(4-(2-((1H-Pyrazol-4-yl)amino)thieno[3,2-d]pyrimidin-4-yl)-1H-pyrazol-1-yl)-1-(ethylsulfonyl)azetidin-3-yl)acetonitrile] | < 50 | < 50 | 50 to 500
CCS(=O)(=O)N1CC(CC#N)(n2cc(-c3nc(Nc4cnn(C(=O)COC)c4)nc4ccsc34)cn2)C1 [Compound T-32, 2-(1-(Ethylsulfonyl)-3-(4-(2-((1-(2-methoxyacetyl)-1H-pyrazol-4-yl)amino)thieno[3,2-d]pyrimidin-4-yl)-1H-pyrazol-1-yl)azetidin-3-yl)acetonitrile] | < 50 | < 50 | < 50
CCS(=O)(=O)N1CC(CC#N)(n2cc(-c3nc(Nc4cnn(CC(=O)O)c4)nc4ccsc34)cn2)C1 [Compound T-33, 2-(4-((4-(1-(3-(Cyanomethyl)-1-(ethylsulfonyl)azetidin-3-yl)-1H-pyrazol-4-yl)thieno[3,2-d]pyrimidin-2-yl)amino)-1H-pyrazol-1-yl)acetic acid] | < 50 | < 50 | 50 to 500
CCCCOC(=O)CCn1cc(Nc2nc(-c3cnn(C4(CC#N)CN(S(=O)(=O)CC)C4)c3)c3sccc3n2)cn1 [Compound T-34, Butyl 3-(4-((4-(1-(3-(cyanomethyl)-1-(ethylsulfonyl)azetidin-3-yl)-1H-pyrazol-4-yl)thieno[3,2-d]pyrimidin-2-yl)amino)-1H-pyrazol-1-yl)propanoate] | < 50 | 50 to 500 | 50 to 500
CCS(=O)(=O)N1CC(CC#N)(n2cc(-c3nc(Nc4cnn(CCC(=O)O)c4)nc4ccsc34)cn2)C1 [Compound T-35, 3-(4-((4-(1-(3-(Cyanomethyl)-1-(ethylsulfonyl)azetidin-3-yl)-1H-pyrazol-4-yl)thieno[3,2-d]pyrimidin-2-yl)amino)-1H-pyrazol-1-yl)propanoic acid] | < 50 | < 50 | 50 to 500
CCS(=O)(=O)N1CC(CC#N)(n2cc(-c3nc(Nc4cnn(CCC(=O)N(C)C)c4)nc4ccsc34)cn2)C1 [Compound T-36, 3-(4-((4-(1-(3-(Cyanomethyl)-1-(ethylsulfonyl)azetidin-3-yl)-1H-pyrazol-4-yl)thieno[3,2-d]pyrimidin-2-yl)amino)-1H-pyrazol-1-yl)-N,N-dimethylpropanamide] | < 50 | 50 to 500 | < 50
CCS(=O)(=O)N1CC(CC#N)(n2cc(-c3nc(Nc4cnn(CCCC(=O)N(C)C)c4)nc4ccsc34)cn2)C1 [Compound T-37, 4-(4-((4-(1-(3-(Cyanomethyl)-1-(ethylsulfonyl)azetidin-3-yl)-1H-pyrazol-4-yl)thieno[3,2-d]pyrimidin-2-yl)amino)-1H-pyrazol-1-yl)-N,N-dimethylbutanamide] | < 50 | < 50 | < 50
